Columns and labels:
[1] = test system: IL-6 null (KO) mice; test: second paired saline/lipid infusion 2.5 mU/kg/min hyperinsulinemic-euglycemic clamp, IL-6 null mice; type: in vivo
Experimental: (§1) For the second paired lipid infusion HIE clamp study, 10 week old male B6.129S2-ll6^tmkopf/J (IL-6 KO) and control C57BL/6J (WT) mice from Jackson Labs were used. Mice from each genetic background were randomly assigned to saline-vehicle, saline-PDX, lipid-vehicle and lipid-PDX groups. The lipid-infusion clamp study was performed as described above, except the clamp was performed with a 2.5 mU·kg^−1·min^−1 insulin infusion as per^29.
(§2) To confirm the involvement of IL-6 in the beneficial effects of PDX we performed a second round of paired lipid infusion hyperinsulinemic-euglycemic clamp studies in IL-6 null (KO) mice alongside wild-type (WT) C57BL/6J control mice. Saline-infused mice treated with PDX were added to the study to ascertain whether PDX also improves glucose metabolism in insulin-sensitive mice. To ensure detection of potential differences between insulin-sensitive saline-infused animals we performed 2.5mU/kg/min rather than 4 mU/kg/min clamps.

[2] = test system: T37i brown adipocytes; test: IL-6 release from cultured brown adipocytes; type: cell-based; conditions: norepinephrine 1 μM as adrenergic stimulus
Description: Since brown adipose tissue was recently shown to regulate glucose homeostasis via secretion of IL-6^20 we also examined whether PDX might raise circulating IL-6 by stimulating brown fat.

[3] = test system: wild-type (WT) C57BL/6J control mice; test: second paired saline/lipid infusion 2.5 mU/kg/min hyperinsulinemic-euglycemic clamp, wild-type mice; type: in vivo
Experimental: as §1, §2

[4] = test system: db/db mice; test: 5 days PDX treatment of db/db mice with hyperinsulinemic-isoglycemic clamp; type: in vivo
Experimental: In order to determine whether these beneficial effects of PDX could be sustained or improved with a prolonged treatment regimen, we administered 2 μg of PDX or vehicle (i.v.) twice daily to 17 week old db/db for 5 days leading up to the clamp experiment (FIGS. 10 and 11).
The hyperinsulinemic-isoglycemic clamp (FIG. 11) is the gold-standard for evaluating insulin stimulated glucose metabolism in viva Animals were fasted around 8 am (t=−300 min), and received a first injection of either PDX (2 μg/mice) or the vehicle (10% Ethanol) at t=−240 min. A second injection was given at time −90 min, after which the clamp procedure per se was started. This procedure consisted of a 90-min tracer equilibration period (t=−90 to 0 min) followed by a 120 min hyperinsulinemic isoglycemic clamp (t=0 to 120 min). A 50 μl blood sample was obtained at t=−90 min to determine radioactive-free plasma activity. A 0.5 μCi bolus of [3-3H]-glucose was given at t=−90 min followed by a 0.033 μCi/min infusion for 90 min (t=−90 to 0 min). At t=−30, -20, -10 and 0 min, blood samples were taken for the assessment of basal glucose and glucose specific activity. The insulin infusion began at t=0 min with a primed-continuous infusion of human insulin (16 mU/kg bolus followed by a 4 mU/kg/min infusion), to achieve plasma insulin concentrations 2.5-fold over basal concentrations. At t=0 min, the [3-3H]-glucose infusion was increased to 0.066 μCi/min for the remainder of the experiment to minimize changes in specific activity from the equilibration period. Isoglycemia was maintained by measuring blood glucose every 10 min starting at t=0 min and infusing 20% glucose as necessary to preserved the blood glucose at basal levels. Blood samples were taken every 10 min from t=90 to 120 min for the determination of glucose specific activity.

[5] = saline and lipid-infused KO mice
[6] = saline and lipid-infused WT mice, P<0.05

## CC/C=C\C[C@H](O)/C=C/C=C\C=C\[C@@H](O)C/C=C\C/C=C\CCC(=O)O [PDX, 10S,17S-dihydroxy-docosa-4Z,7Z,11E,13Z,15E,19Z-hexaeonic acid]
[1]; KO mice, saline and lipid-infused
  activation of hepatic STAT-3: completely absent
[1]; lipid-infused IL-6 KO mice, P<0.001
  lipid-induced elevations in circulating TNFa: potently suppress
[1]; lipid-infused KO mice
  effect on hepatic insulin action: only partially lost
  effect on peripheral insulin action: completely absent
  effects on suppression of Ppargc1, Pck1 and G6Pc: entirely absent
  stimulatory effect on AMPK phosphorylation (muscle): fully maintained
[1]; [5]
  IL-6 in skeletal muscle: failed to raise
  effect on pre-clamp glycemia: completely absent
  enhancement of GIR: this was not the case
[1]; saline-infused KO mice
  effect on hepatic insulin action: completely absent
  effect on transcriptional repression of PEPCK: completely absent
  improved suppression of G6Pc: this was not the case
[2]
  release of IL-6: not able to stimulate
[3]; insulin sensitive saline infused mice
  Akt phosphorylation: without raising
[3]; lipid-infused WT mice, P<0.001
  hepatic insulin action: improved
[3]; lipid-infused WT mice, P<0.01, P<0.05, p<0.001
  suppression of Ppargc1, Pck1 and G6Pc (liver mRNA): significantly improved the suppression
[3]; lipid-infused WT mice, P<0.05
  peripheral insulin action: improved
[3]; [6]
  GIR: significantly enhanced
  pre-clamp glycemia: significant fall
[3]; saline-infused WT mice, P<0.01
  transcriptional repression of PEPCK (liver): additive effect
[3]; saline-infused WT mice, P<0.05
  hepatic insulin action: superior hepatic insulin action
[3]; saline-infused WT mice, P=0.0614
  suppression of G6Pc (liver): tended to improve
[3]; saline-infused mice
  peripheral glucose disposal: did not increase
  suppression of PGC-1α (liver mRNA): not associated with further suppression
[4]; 2 μg PDX i.v. twice daily for 5 days vs vehicle
  total body weight: no significant changes
[4]; 5 day PDX treatment
  IL6 levels in eWAT: no such increase
  fasting blood glucose: not affected
  plasma IL-6: trend for increased
  plasmatic insulin levels: not affected
[4]; PDX-treated vs vehicle-treated
  cytokines content in the eWAT: no difference
[4]; after the 5 days PDX treatment
  insulin sensitivity (glucose infusion rate, GIR): clear improvement
[4]; end of the 5 days treatment
  weight of tissues (iWAT, eWAT, liver, gastrocnemius, pancreas): No significant changes
[4]; gastrocnemius, P<0.05
  skeletal muscle IL-6: elevated

Reference: US9782379B2, “Use of protectin DX for the stimulation of muscular IL-6 secretion” (Universite Laval, priority 2013, dated 2017)
